Experiments:
[1] = molecular target: IRAK1 (Homo sapiens, UniProt P51617); assay: RBC HotSpot kinase inhibition assay, IRAK1; type: biochemical; conditions: isolated kinase, 33P-ATP, 2 h
Procedure, shortened: (§1)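 Isolated kinases, possibly truncated or lacking regulatory receptor domains, in 20 mM Hepes pH 7.5, 10 mM MgCl2, 1 mM EGTA, 0.01% Brij35, 2 mM DTT, 1% DMSO with substrate and cofactors. Compound preincubated 20 min, then ^33P-ATP added; 2 h at room temperature, read by P81 filter binding.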

[2] = molecular target: T1, FLT3 (Homo sapiens, UniProt P36888); assay: RBC HotSpot kinase inhibition assay, FLT3; type: biochemical; conditions: isolated kinase, 33P-ATP, 2 h
T1 sequence (P36888 27-993): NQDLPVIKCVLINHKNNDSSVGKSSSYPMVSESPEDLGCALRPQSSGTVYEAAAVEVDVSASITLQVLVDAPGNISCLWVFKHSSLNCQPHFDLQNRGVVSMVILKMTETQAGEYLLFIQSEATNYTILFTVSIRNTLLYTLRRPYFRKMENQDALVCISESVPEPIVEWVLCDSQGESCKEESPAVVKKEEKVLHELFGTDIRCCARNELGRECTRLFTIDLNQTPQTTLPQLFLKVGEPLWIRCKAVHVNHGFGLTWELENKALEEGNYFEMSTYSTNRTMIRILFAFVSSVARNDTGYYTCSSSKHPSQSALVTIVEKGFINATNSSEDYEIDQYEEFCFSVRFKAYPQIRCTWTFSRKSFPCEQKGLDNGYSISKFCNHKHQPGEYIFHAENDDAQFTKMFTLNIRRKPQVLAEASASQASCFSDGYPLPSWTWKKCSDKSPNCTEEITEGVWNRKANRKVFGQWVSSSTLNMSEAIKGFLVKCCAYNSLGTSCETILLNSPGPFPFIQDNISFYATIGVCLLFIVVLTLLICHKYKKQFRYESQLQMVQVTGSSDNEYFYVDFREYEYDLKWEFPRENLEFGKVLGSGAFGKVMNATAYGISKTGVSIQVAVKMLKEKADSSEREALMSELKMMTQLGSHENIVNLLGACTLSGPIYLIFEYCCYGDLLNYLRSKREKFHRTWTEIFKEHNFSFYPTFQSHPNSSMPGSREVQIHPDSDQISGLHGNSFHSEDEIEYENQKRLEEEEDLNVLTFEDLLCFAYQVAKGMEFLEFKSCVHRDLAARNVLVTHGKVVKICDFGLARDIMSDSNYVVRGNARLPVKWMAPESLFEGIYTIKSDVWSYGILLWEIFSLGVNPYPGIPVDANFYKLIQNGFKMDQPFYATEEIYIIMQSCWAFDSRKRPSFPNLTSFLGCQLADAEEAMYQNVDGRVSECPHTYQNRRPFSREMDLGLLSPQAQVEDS
Procedure, shortened: as §1

Sequence of IRAK1 (P51617 whole entry, the tested form may be a part): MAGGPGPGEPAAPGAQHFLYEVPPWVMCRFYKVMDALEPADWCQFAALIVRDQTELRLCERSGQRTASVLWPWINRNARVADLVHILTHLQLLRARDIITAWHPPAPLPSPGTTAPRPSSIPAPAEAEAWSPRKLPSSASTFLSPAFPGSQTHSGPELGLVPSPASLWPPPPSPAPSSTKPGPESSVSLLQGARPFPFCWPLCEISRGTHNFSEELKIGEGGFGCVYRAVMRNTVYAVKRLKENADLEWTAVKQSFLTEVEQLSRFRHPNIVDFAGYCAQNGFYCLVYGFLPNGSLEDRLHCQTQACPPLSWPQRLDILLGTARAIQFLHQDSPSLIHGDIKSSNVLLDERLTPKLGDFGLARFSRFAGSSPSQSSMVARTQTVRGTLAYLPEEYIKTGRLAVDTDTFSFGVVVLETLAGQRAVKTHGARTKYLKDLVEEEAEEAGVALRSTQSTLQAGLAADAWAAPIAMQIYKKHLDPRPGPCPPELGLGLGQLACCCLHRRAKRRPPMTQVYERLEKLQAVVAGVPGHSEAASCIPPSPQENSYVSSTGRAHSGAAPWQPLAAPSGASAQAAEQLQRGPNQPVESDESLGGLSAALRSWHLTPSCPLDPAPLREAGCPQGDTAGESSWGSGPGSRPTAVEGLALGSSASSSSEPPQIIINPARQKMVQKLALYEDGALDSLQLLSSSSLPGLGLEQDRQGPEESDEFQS

| SMILES | IC50 ([1]; Table 11) | IC50 ([2]; Table 11) | IC50 ([1]; Table 17) | IC50 ([2]; Table 17) |
| --- | --- | --- | --- | --- |
| COc1cn2ncc(-c3nc(N[C@H]4CNCC[C@@H]4F)ccc3F)c2nc1C1CC1 [Compound 3, 6-(5-cyclopropyl-6-methoxypyrazolo[1,5-a]pyrimidin-3-yl)-5-fluoro-N-((3S,4S)-4-fluoropiperidin-3-yl)pyridin-2-amine] | 0.8 nM | < 0.5 nM |  |  |
| COc1cn2ncc(-c3ccc(F)c(N[C@H]4CNCC[C@@H]4F)n3)c2nc1C1CC1 [Compound 6, 6-(5-cyclopropyl-6-methoxypyrazolo[1,5-a]pyrimidin-3-yl)-3-fluoro-N-((3S,4S)-4-fluoropiperidin-3-yl)pyridin-2-amine] | 4 nM | < 0.5 nM |  |  |
| COc1cn2ncc(-c3nc(N[C@H]4CNC[C@@H]4F)ncc3F)c2nc1C(C)(C)O [Compound 5a, 2-(3-(5-fluoro-2-(((3S,4S)-4-fluoropyrrolidin-3-yl)amino)pyrimidin-4-yl)-6-methoxypyrazolo[1,5-a]pyrimidin-5-yl)propan-2-ol] |  |  | 6 nM | < 0.5 nM |

Second part, the compound after the results:

| IC50 ([1]; Table 11) | IC50 ([2]; Table 11) | IC50 ([1]; Table 17) | IC50 ([2]; Table 17) | SMILES |
| --- | --- | --- | --- | --- |
|  |  | < 0.5 nM | < 0.5 nM | COc1cn2ncc(-c3nc(N[C@H]4CNC[C@@H]4F)ncc3F)c2nc1C1CC1 [Compound 13a, 4-(5-cyclopropyl-6-methoxypyrazolo[1,5-a]pyrimidin-3-yl)-5-fluoro-N-((3S,4S)-4-fluoropyrrolidin-3-yl)pyrimidin-2-amine] |
| 3 nM | < 0.5 nM |  |  | COc1cn2ncc(-c3nc(N[C@@H]4CCCNC4)c(C#N)cc3F)c2nc1C(C)(C)O [Compound 9, (R)-5-fluoro-6-(5-(2-hydroxypropan-2-yl)-6-methoxypyrazolo[1,5-a]pyrimidin-3-yl)-2-(piperidin-3-ylamino)nicotinonitrile] |
|  |  | 8 nM | < 0.5 nM | COc1cn2ncc(-c3ccnc(N[C@H]4CNCC[C@@H]4F)n3)c2nc1C1CC1 [Compound 7a, 4-(5-cyclopropyl-6-methoxypyrazolo[1,5-a]pyrimidin-3-yl)-N-((3S,4S)-4-fluoropiperidin-3-yl)pyrimidin-2-amine] |

Source: patent US20260374773A1, “MULTI-CYCLIC IRAK AND FLT3 INHIBITING COMPOUNDS AND USES THEREOF” (CHILDREN'S HOSPITAL MEDICAL CENTER, priority 2022, published 2026)
